In patent US9201014B2, “Development of photostable near-IR cyanine dyes for in vivo imaging” (National University of Singapore, priority 2010, dated 2015):
Each block holds one compound with its values, some of them ahead of it.

What was measured:
[1] = in DMSO; cited from earlier work
[2] = Absorbance and fluorescence maximum wavelengths and quantum yields of the CyNA library; format: physicochemical; settings: for λabs, absorbance maximum wavelength / λem, fluorescence maximum wavelength: CyNA library; for φ, quantum yield: in DMSO, Cardiogreen as standard
Method in brief: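 Absorption and emission maxima and quantum yields of the 80-member amine-derivatized CyNA library were measured on a plate spectrophotometer.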

[3] = Primary screening of photostability of the CyNA library (time-course fluorescence, 8 h); format: physicochemical; parameters: F/Fo, fluorescent intensity at 8 hours vs 0 hours: unit: %; settings: 10 μM in HEPES 100 mM pH 7.4, 2% DMSO
Method in brief: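 CyNA dyes at 10 μM in 100 mM HEPES pH 7.4 with 2% DMSO irradiated by xenon lamp for 8 h. Fluorescence (ex/em 790-820 nm) read every 10 min; stability given as F8h/Fo.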

[4] = tested on: mouse macrophage Raw 264.7 cell line; assay: High-throughput cell imaging-based screen of CyNA library; settings: Raw 264.7 vs mouse splenocytes
Experimental: In order to identify CyNA probes that could selectively stain mouse macrophage Raw 264.7 cell line (a mouse leukemic monocyte macrophage cell line), a library of CyNA compounds was assayed in a high-throughput cell imaging-based screen. The cell images were recorded using an automated imaging microscope system, IMAGEXPRESS MICRO™, and the fluorescent images were analyzed by cellular fluorescence intensity using METAXPRESS® image processing software.

[5] = tested on: primary mouse peritoneal cavity cells; assay: Validation of macrophage selectivity (peritoneal cells, Raw 264.7, splenocytes); format: cell-based; settings: 1 μM, 1 hour
Experimental: To validate the selectivity of CyNA-374, primary mouse peritoneal cavity cells were prepared. The identity of the mouse peritoneal cells was confirmed with CD11b macrophage antibody and flow cytometry. Next, the mouse peritoneal cells, Raw 264.7 cells and splenocytes were seeded in parallel. The following day, the cells were incubated with 1 μM CyNA-374 for 1 hour, then analyzed immediately using fluorescence microscopy.

[6] = tested on: M1 macrophages (LPS-activated Raw 264.7 cells); assay: Staining of activated (M1) macrophages; format: cell-based, mouse; settings: 1 μM, 1 hour
Experimental: To determine if CyNA-374 could stain activated macrophages, Raw 264.7 cells were activated to M1 macrophages. Raw 264.7 cells were plated at 5×10^6 cells/well and allowed to adhere. In some experiments, the cells were then starved for 12 hours, meaning that cells were washed with phosphate-buffered saline (PBS) and incubated in DMEM supplemented with 1% penicillin/streptomycin for 12 hours, but without 10% FBS. After 12 hours, the cells were exposed to 60 ng/mL LPS and, at the 24-hour time point, the supernatant from the cells stimulated by LPS was collected for measurement of NO2 using the Griess reaction. The unstimulated Raw 264.7 cells produced approximately 8.5 μmol/L NO2, while the stimulated Raw 264.7 (or M1) cells produced approximately 45 μmol/L NO2. The M1 cells were seeded in parallel with the unactivated Raw 264.7 cells and the splenocytes. The cells were incubated with 1 μM CyNA-374 for 1 hour, then analyzed using fluorescence microscopy.

[7] = Rates of photobleaching of CyNA-414 and CyN-414; format: physicochemical
Experimental: 10-μM solutions of CyNA-414 and CyN-414 in 10 mM HEPES buffer (pH 7.4) containing 1% DMSO were placed in a 96-well black plate, and fluorescence intensity measurements (n=3) were recorded every 10 minutes for a total period of 12 hours (excitation-emission: 640-750 nm for CyN-414, and 790-820 nm for CyNA-414) under a xenon flash lamp. Values were fitted to a non-linear regression one-phase exponential decay (GraphPad Prism 5.0).

[8] = format: physicochemical
Experimental: As a primary evaluation of photo stability, the decrease in fluorescence intensity of the 80 CyNA compounds was measured (see Table 2). The average decrease in fluorescence intensity after 8 hours of irradiation by a xenon lamp was approximately 18%. A subset of the most photostable compounds (i.e., F/Fo reported in Table 2 was greater than or equal to 95) was examined under stronger irradiation in various buffers.
10-μM CyNA solutions in 10 mM HEPES buffer (pH 7.4) or PBS (pH 7.3) containing 1% DMSO were placed in a 96-well black plate, and irradiated for periods of 15 minutes up to 2 hours with a high-intensity UV lamp (100 W, 365 nm) at a 2-cm distance. Values are represented as means (n=2), and fitted to a non-linear regression one-phase exponential decay (GraphPad Prism 5.0). Results not shown.

[9] = Photophysical properties of CyNE790 and ICG-sulfo-OSu; format: physicochemical
Experimental: FIG. 7A is an absorbance spectrum of 10-μM solutions of CyNA-414, CyNE790, ICG and ICG-sulfo-OSu in DMSO and PBS.
FIG. […]
After corroborating the spectral properties of CyNE790 as a fluorescent NIR dye, its applicability for protein conjugation was assessed by comparing CyNE790 to ICG-sulfo-OSu, the commercially available succinidimyl ester of ICG. […] However, the application of ICG to molecular imaging has been limited because its fluorescence is drastically quenched after protein conjugation.

[10] = Formation of aggregates: absorbance spectrum in DMSO vs PBS; format: physicochemical; settings: spectral profile DMSO vs PBS
[11] = Photobleaching of CyNE790 and ICG-sulfo-OSu in PBS; format: physicochemical
Description: CyNE790 was also compared to ICG-sulfo-OSu, a commercially available succinimidyl ester of ICG (for chemical structures of CyNE790 and ICG-sulfo-OSu, see FIG. 8).

[12] = Fluorescence and photostability of dye-labeled EGFR-IgG2a antibodies; format: physicochemical; settings: conjugated to EGFR-IgG2a, vs ICG label
Experimental: To compare CyNE790 and ICG-sulfo-OSu for in vivo imaging studies, each reactive ester was conjugated to a monoclonal anti-epidermal growth factor receptor (EGFR) antibody.
100 μg of anti-EGFR-IgG2a were washed with PBS using a Microcon 3K filter (Millipore), and re-suspended in 100 μL of Na2CO3—NaHCO3 buffer (pH 9.2). 20 equiv of CyNE790 or ICG-sulfo-OSu (typically 1.0-1.2 μL of a 10 mM solution in DMSO) were added and the whole mixture was shaken in the dark for 2 hours. The excess dye was removed by washing with PBS (3×500 μL) using a Microcon 3K filter (Millipore) (3 rounds at 14,000 rpm at 4° C. for 60 min).
[…] in PBS (pH 7.3) were fixed in a glass coverslide, and irradiated with a diode laser (95 mW, 740 nm, time frame: 500 ms, no delay). Emission was recorded with a NIR-enhanced CCD camera (Andor Technology) adapted to an Eclipse Ti-U microscope (40× magnification, filter cube 750/800), and images were processed using the software NIS-Elements 3.10. The resulting values are represented as means (n=3), and fitted to a non-linear regression one-phase exponential decay (GraphPad Prism 5.0).

Compound: CC1(C)C(/C=C/C=C/C=C/C=C2\N(CCCCS(=O)(=O)[O-])c3ccc4ccccc4c3C2(C)C)=[N+](CCCCS(=O)(=O)[O-])c2ccc3ccccc3c21.[Na+] [Cardiogreen]
φ of quantum yield standard [1]: 0.13

λabs, absorbance maximum wavelength [2]: 806 nm
λem, fluorescence maximum wavelength [2]: 821 nm
φ, quantum yield [2]: 0.14
F/Fo, fluorescent intensity at 8 hours vs 0 hours [3]: 94%
max RFU, maximum relative fluorescence units [3]: 1224.6
Compound: CCCN1/C(=C/C=C2\CCCC(/C=C/C3=[N+](CCC)c4ccccc4C3(C)C)=C2N(Cc2ccccc2)C(C)=O)C(C)(C)c2ccccc21 [CyNA-374]
selective staining in cell imaging screen [4]: selectively stained mouse macrophages, but not mouse splenocytes
staining by fluorescence microscopy [5]: stained both the Raw 264.7 cells and the mouse peritoneal cells
staining of activated macrophages [6]: stained both the unactivated Raw 264.7 cells and the M1 cells

Compound: CCCN1/C(=C/C=C2\CCCC(/C=C/C3=[N+](CCC)c4ccccc4C3(C)C)=C2N(CCCN2CCCCC2C)C(C)=O)C(C)(C)c2ccccc21.[I-] (stereo not shown) [CyNA-414]
λabs, absorbance maximum wavelength [2]: 804 nm
λem, fluorescence maximum wavelength [2]: 819 nm
φ, quantum yield [2]: 0.13
F/Fo, fluorescent intensity at 8 hours vs 0 hours [3]: 100
max RFU, maximum relative fluorescence units [3]: 925.5
k, rate of photobleaching ([7]; 10 μM in 10 mM HEPES pH 7.4, 1% DMSO, xenon flash lamp, 12 hours): 2.5e-06 s⁻¹
kCyN/kCyNA ([7]; CyN-414 vs CyNA-414): 7
photostability under stronger irradiation in various buffers [8]: best photostability

Quantum Yield (DMSO) ([9]; DMSO, ICG as standard): 13%
Quantum Yield (aqueous media) ([9]; PBS pH 7.3, 0.1% DMSO): 3.3%
ε (aqueous media) ([9]; PBS pH 7.3, 0.1% DMSO): 108,000 M^−1 · cm^−1
formation of aggregates in aqueous solution [10]: little to no formation of aggregates
photostability relative to ICG-sulfo-OSu ([11]; 10 μM in PBS pH 7.3, 1% DMSO): 15 fold
maximum relative fluorescence units (rfu) ([11]; photobleaching experiments): 708 rfu
Compound: CCCN1/C(=C/C=C2\CCCC(/C=C/C3=[N+](CCC)c4ccccc4C3(C)C)=C2N(CCCN2CCCCC2C)C(=O)CCCC(=O)ON2C(=O)CCC2=O)C(C)(C)c2ccccc21 (stereo not shown) [CyNE790]
fluorescent properties compared to ICG and ICG-sulfo-OSu ([9]; 10 μM in PBS, 1% DMSO, excitation 760 nm, FIG. 7B): superior fluorescent properties to both ICG and ICG-sulfo-OSu
fluorescence intensity and photostability after protein conjugation [12]: maintains its superior fluorescence intensity and photostability
